According to patent publication US12697366B2, “Thermogenic compositions and methods” (Ohio State Innovation Foundation, priority 2016, dated 2026):

Legend:
DIO mice = experiment: Study 3 (Example 2): EREG injected into epididymal iAb fat of DIO mice; format: in vivo, mouse
Description: 6-week old C57BL6/J male mice (WT) were fed a high fat diet (HF, 45% kcal from fat, D12451, Research Diet Inc., New Brunswick, NJ) for 30 days. Then mice were randomly assigned for • 1) a control group injected with 0.1 mL sterile phosphate buffered saline (PBS) into both epididymal iAb fat (n=7), and • 2) EREG-treated group injected with 20 ng EREG per epididymal iAb fat depot (n=7). Mice were injected with 0.1 mL sterile PBS, containing 200 ng EREG/mL. Mice were individually housed and pair fed when injection started. Mice were injected every other day for 2 weeks. Metabolic measurements were performed as described in 2.5. WAT were collected for protein, mRNA, and histology. Metabolic parameters in study 2.3 and 2.4 were measured by indirect calorimetry (CLAMS, Columbus Instruments, Columbus, OH) at ambient temperature (22° C.) with 12 h light/dark cycles. Animals were fed the same HF diet and water provided ad libitum. Mice were placed individually and allowed to acclimatize in the chambers for 12 h, and O2 consumption, CO2 production, energy expenditure, and locomotor activity were measured for 24 h. Then temperature was changed to 4° C. for 6 h. […] NanoString's nCounter analysis system performed direct detection of target molecules from a single sample using color-coded molecular barcodes, giving a digital quantification of the number of target molecules. A custom panel containing Ereg, thermogenic genes, and PPARα-target genes was designed and used for simultaneous quantification of 37 genes including housekeeping genes. All data were normalized to 3 housekeeping genes Gapdh, Pgk1, and Tubb quantified in the same samples using nSolver Software. Total mRNA (100 ng in 5 μl) was hybridized overnight with nCounter Reporter (20 μl) probes in hybridization buffer and in an excess of nCounter Capture probes (5 μL) at 65° C. for 16-20 h. The hybridization mixture containing target/probe complexes was allowed to bind to magnetic beads containing complementary sequences on the Capture Probe. After each target found a probe pair, excess probes were washed followed by sequential binding to sequences on the Reporter Probe. Biotinylated capture probe-bound samples were immobilized and recovered on a streptavidin-coated cartridge. The abundance of specific target molecules was then quantified using the nCounter Digital Analyzer. Individual fluorescent barcodes and target molecules present in each sample were recorded with a CCD camera by performing a high-density scan (600 fields of view). Images were processed internally into a digital format and were normalized using the NanoString nSolver software analysis tool. Counts were normalized for all target RNAs in all samples based on the positive control RNA to account for differences in hybridization efficiency and post-hybridization processing, purification, and immobilization of complexes. The average was normalized by background counts (the average of the eight negative control counts) for each sample. Subsequently, a normalization of mRNA content was performed based on Gapdh, Pgk1, and Tubb internal reference housekeeping genes. Plasma FFA and TG were measured in plasma samples from study 3, using kits from Wako Diagnostics (Mountain View, CA). Plasma samples were collected from mice in Study 3 and analyzed using a mouse leptin ELISA Kit (Alpco, Salem, NH) according to manufacturer's instruction. The absorbance (450 nm) was measured using Synergy H1 Hybrid Multi-Mode Microplate Reader. Insulin levels were measured in plasma from mice in Study 4 using an ultra-sensitive mouse insulin ELISA kit (Crystal Chem, Downers Grove, IL) according to manufacturer's instruction.

[1] = tested on: iAb (omental) fat explants; experiment: LEP release from iAb (omental) fat explants of an obese patient (ELISA); format: cell-based, human; conditions: different EREG concentrations, 2 h
Description: FIGS. 14A to 14N show EREG induces expression of thermogenic and PPARα-target genes, suppresses inflammatory genes, and stimulates leptin secretion. FIGS. 14A to 14H and 14L: Markers for thermogenesis, adipogenesis, and inflammatory genes were analyzed using homogenates from whole iAb fat pads isolated from Veh- (white bars) and EREG-treated (black bars) DIO mice (Study 3). Gene expression was quantified using a customized NanoString panel. Data represent mean±SD, n.s.,—non-significant. FIG. 14I: LEP was measured in plasma in the same mice by ELISA. Data (mean±SD) are shown as percent to control (Veh, 100%) and is indicated as a dashed line. FIG. 14J: LEP release after stimulation with different concentrations of recombinant human EREGs was measured in explants of iAb (omental) tissue obtained from an obese insulin resistant patient. FIG. 14K: LEP release after stimulation of explants from same donor with and without EREG (50 ng/mL) in the presence and absence of insulin (Ins, 10 μg/mL), MAPK-I, EGFR-I, PI3K-I. Inhibitors concentrations were described in FIG. 1. FIG. 14M: LEP release after stimulation of iAb fat explants (2 h) from WT mice with different concentrations of recombinant mouse EREG. Experiment was repeated in three different WT mice. Data (mean±SD) are shown as percent to control (Veh, 100%). FIG. 14N: LEP release following stimulation of iAb fat explants (2 h) from WT mice with inhibitors of EGFR (10 μM) and MAPK (10 μM) in the presence or absence of EREG (50 ng/ml). Data (mean±SD) are shown as percent to control (Veh, 100%).
Abdominal fat tissue obtained from an obese patient was excised into 35 mg sections for stimulation with EREG. Explants were stimulated with EREG in DMEM containing 1% FBS for 2 h. Media was collected after 2 h, lyophilized and reconstituted in 120 μL deionized water for leptin detection using ELISA kit (Alpco, Salem, NH).

For “EREG: Epiregulin, member of the epidermal growth factor family; recombinant mouse or human protein”, the “metabolic rate at ambient temperature and after cold exposure” value (DIO mice; CLAMS) was “increase”, the “body temperature in the abdominal area” value (DIO mice; EREG 20 ng per depot every other day, 2 weeks, infrared camera) was “profound effects” and the weight gain (DIO mice; HF diet) was “prevented”. The “expression of PPARα target genes Mcat and Cpt2 in iAb fat” value (DIO mice; NanoString) was “increased”, the “expression of pro-inflammatory genes Tnfa and Mcp1 in iAb fat” value (DIO mice; NanoString) was “suppressed” and the “expression of thermogenic genes (Dio2, Pgc1a, Cidea, Rip140) and CoxIV in iAb fat” value (DIO mice; NanoString) was “significantly increased”. For the same substance, the “light and dark period activity” value (DIO mice; before and after cold exposure) was “did not influence”, the “Lep expression in iAb fat” value (DIO mice; between groups) was “similar” and the “levels of BAT marker Prdm16 in iAb fat” value (DIO mice; between groups) was “similar”. The food consumption (DIO mice; both groups) was “similar”, the “decrease of circulating triglyceride levels” value (DIO mice; compared to control group) was 48% and the “increase in Ucp1 and Pparg expression in iAb fat” value (DIO mice; mouse, in vivo) was “did not reach statistical significance”. The “less iAb fat than non-treated mice” value (DIO mice; mouse, in vivo) was 32%, the “liver, BAT and subcutaneous WAT weight” value (DIO mice; normalized to body weight) was “did not influence” and the “levels of secreted LEP, higher than in non-treated mice” value (DIO mice; plasma, ELISA) was 215%. The RER (DIO mice; treated vs non-treated) was “similar”, the “increase in non-esterified fatty acid in the circulation” value (DIO mice; vs control group) was 580% and the “time to maximal metabolic rate plateau during cold exposure” value (DIO mice; vs control group) was “significantly shorter”. For the same substance, the “release of LEP from iAb fat explants” value [1] was “dose dependent release”.
